Source: EPA's ToxRefDB 2

Assays:
rat [1] = conditions: Multigenerational reproductive toxicity study, sprague dawley, Oral, Gavage/Intubation, dose end: 1 generation
rat [2] = conditions: Sub-acute repeat dose toxicity, sprague dawley, Oral, Gavage/Intubation, dose end: 28 day, group: systemic
mouse [3] = conditions: Combined chronic toxicity/carcinogenicity, b6c3f1, Oral, Feed, dose end: 2 year
dog [4] = conditions: Subchronic oral toxicity in nonrodent, beagle, Feed, dose end: 90 day
dog [5] = conditions: Subchronic oral toxicity in nonrodent, beagle, Feed, dose end: 13 week
mouse [6] = conditions: Subchronic oral toxicity in rodents, cd1, Feed, dose end: 3 month, group: systemic
rat [7] = conditions: Subchronic oral toxicity in rodents, sprague dawley, Feed, dose end: 3 month
rat [8] = conditions: Multigenerational reproductive toxicity study, sprague dawley, Oral, Feed, dose end: 2 generation
rat [9] = conditions: Combined chronic toxicity/carcinogenicity, sprague dawley, Oral, Feed, dose end: 28 month
dog [10] = conditions: Chronic toxicity, beagle, Oral, Feed, dose end: 12 month
rat [11] = conditions: Prenatal developmental toxicity study, wistar, Oral, Gavage/Intubation, dose end: 15 GD
rat [12] = conditions: Subchronic oral toxicity in rodents, Feed, dose end: 90 day, group: systemic
mouse [13] = conditions: Carcinogenicity, b6c3f1, Oral, Feed, dose end: 2 year, group: systemic
rat [14] = conditions: Combined chronic toxicity/carcinogenicity; fischer; Oral; Feed; dose end: 2 year; group: systemic; systemic / pathology microscopic / liver / hypertrophy + systemic / in life observation / clinical signs / hematuria + systemic / pathology …
dog [15] = conditions: Chronic toxicity, beagle, Oral, Feed, dose end: 12 month, group: systemic
rat [16] = conditions: Combined chronic toxicity/carcinogenicity, fischer, Oral, Feed, dose end: 2 year, group: systemic
rat [17] = conditions: Subchronic oral toxicity in rodents, fischer, Feed, dose end: 13 week, group: systemic, systemic / organ weight / liver / nos + systemic / pathology microscopic / liver / [other] + systemic / organ weight / liver / relative to …
dog [18] = conditions: Subchronic oral toxicity in nonrodent, beagle, Feed, dose end: 6 month, group: systemic
mouse [19] = conditions: Subchronic oral toxicity in rodents, b6c3f1, Feed, dose end: 13 week, group: systemic, systemic / organ weight / liver / nos + systemic / pathology microscopic / liver / cellular alteration
[20] = group: offspring, systemic / in life observation / body weight / offspring (pup) weight
[21] = group: parental, systemic / organ weight / heart / relative to body weight + systemic / organ weight / kidney / relative to body weight + systemic / organ …
[22] = group: reproductive, reproductive / offspring survival early / birth index / live birth index
[23] = systemic / organ weight / liver / relative to body weight + systemic / clinical chemistry / bilirubin / total bilirubin + systemic / in life…
[24] = group: cholinesterase, cholinesterase / cholinesterase / cholinesterase / brain cholinesterase (che) + cholinesterase / cholinesterase / cholinesterase / …
[25] = group: systemic, systemic / clinical chemistry / cholesterol / cholesterol
[26] = group: systemic, systemic / clinical chemistry / cholesterol / cholesterol + systemic / in life observation / body weight / body weight + systemic / in life …
[27] = group: cholinesterase, cholinesterase / cholinesterase / cholinesterase / erythrocyte cholinesterase (che) + cholinesterase / cholinesterase / cholinesterase / …
[28] = group: systemic, systemic / in life observation / clinical signs / pulse/pressure
[29] = group: cholinesterase, cholinesterase / cholinesterase / cholinesterase / plasma cholinesterase (che) + cholinesterase / cholinesterase / cholinesterase / …
[30] = group: systemic, systemic / in life observation / body weight / body weight gain + systemic / in life observation / clinical signs / emaciation + systemic / …
[31] = systemic / in life observation / body weight / body weight + systemic / organ weight / brain / relative to body weight + systemic / organ …
[32] = group: cholinesterase, cholinesterase / cholinesterase / cholinesterase / erythrocyte cholinesterase (che)
[33] = group: systemic, systemic / clinical chemistry / albumin-globulin ratio / albumin-globulin ratio
[34] = group: systemic, systemic / hematology / hemoglobin (hgb) / hemoglobin (hgb) + systemic / pathology microscopic / stomach / acanthosis + systemic / pathology…
[35] = group: offspring, developmental / offspring survival late / viability index / viability index
[36] = group: parental, systemic / in life observation / body weight / body weight gain
[37] = group: systemic, systemic / hematology / erythrocyte (rbc) count differential / erythrocyte (rbc) + systemic / hematology / hematocrit (hct) / hematocrit (…
[38] = group: systemic, systemic / organ weight / liver / absolute
[39] = group: developmental, systemic / in life observation / body weight / fetal weight + developmental / developmental malformation / bone / delayed ossification + …
[40] = group: maternal, reproductive / reproductive performance / postimplantation loss / postimplantation loss + reproductive / reproductive performance / …
[41] = systemic / organ weight / liver / nos + systemic / pathology microscopic / liver / [other]
[42] = systemic / organ weight / liver / nos + systemic / pathology microscopic / liver / [other] + systemic / organ weight / kidney / nos
[43] = systemic / organ weight / kidney / nos + systemic / organ weight / kidney / relative to body weight
[44] = systemic / organ weight / liver / relative to body weight + systemic / in life observation / body weight / body weight gain + systemic / …
[45] = systemic / in life observation / body weight / body weight + systemic / in life observation / mortality / mortality
[46] = systemic / organ weight / liver / absolute + systemic / organ weight / liver / relative to body weight
[47] = systemic / organ weight / liver / absolute + systemic / organ weight / liver / relative to body weight + systemic / clinical chemistry / …

O=[N+]([O-])c1ccc(O)c([N+](=O)[O-])c1 [2,4-Dinitrophenol]
LEL (rat [1]; [20]): 30 mg/kg/day
LOAEL (rat [1]; [20]): > 30 mg/kg/day
NEL (rat [1]; [20]): 10 mg/kg/day
NOAEL (rat [1]; [20]): ≥ 30 mg/kg/day
LEL (rat [1]; [21]): 30 mg/kg/day
LOAEL (rat [1]; [21]): > 30 mg/kg/day
NEL (rat [1]; [21]): 10 mg/kg/day
NOAEL (rat [1]; [21]): ≥ 30 mg/kg/day
LEL (rat [1]; [22]): 30 mg/kg/day
LOAEL (rat [1]; [22]): > 30 mg/kg/day
NEL (rat [1]; [22]): 10 mg/kg/day
NOAEL (rat [1]; [22]): ≥ 30 mg/kg/day
LEL (rat [2]; systemic / clinical chemistry / bilirubin / total bilirubin): 10 mg/kg/day
NEL (rat [2]; systemic / clinical chemistry / bilirubin / total bilirubin + systemic / in life observation / clinical signs / [other] + systemic / in life…): 3 mg/kg/day
LOAEL (rat [2]; [23]): > 80 mg/kg/day
NOAEL (rat [2]; [23]): ≥ 80 mg/kg/day

COP(=S)(OC)Oc1ccc([N+](=O)[O-])cc1 [Methyl parathion]
LEL (mouse [3]; [24]): 1.6 mg/kg/day
LOAEL (mouse [3]; [24]): 1.6 mg/kg/day
NEL (mouse [3]; [24]): 0.2 mg/kg/day
NOAEL (mouse [3]; [24]): 0.2 mg/kg/day
LEL (mouse [3]; [25]): 2.1 mg/kg/day
LOAEL (mouse [3]; [25]): 2.1 mg/kg/day
NEL (mouse [3]; [26]): 0.3 mg/kg/day
NOAEL (mouse [3]; [26]): 0.3 mg/kg/day
LEL (dog [4]; [27]): 1 mg/kg/day
LOAEL (dog [4]; [27]): 1 mg/kg/day
NEL (dog [4]; [27]): 0.3 mg/kg/day
NOAEL (dog [4]; [27]): 0.3 mg/kg/day
LEL (dog [4]; [28]): 3 mg/kg/day
LOAEL (dog [4]; [28]): 3 mg/kg/day
NEL (dog [4]; [28]): 1 mg/kg/day
NOAEL (dog [4]; [28]): 1 mg/kg/day
LEL (dog [5]; [29]): 3 mg/kg/day
LOAEL (dog [5]; [29]): 3 mg/kg/day
NEL (dog [5]; [29]): 0.3 mg/kg/day
NOAEL (dog [5]; [29]): 0.3 mg/kg/day
LOAEL (dog [5]; group: systemic, systemic / in life observation / body weight / body weight gain): 3 mg/kg/day
LEL (dog [5]; [30]): 3 mg/kg/day
NOAEL (dog [5]; [30]): 0.3 mg/kg/day
NEL (dog [5]; group: systemic, systemic / in life observation / clinical signs / emaciation + systemic / in life observation / clinical signs / dehydration + systemic / in…): 0.3 mg/kg/day
LOAEL (mouse [6]; systemic / in life observation / body weight / body weight): 13.5 mg/kg/day
LEL (mouse [6]; [31]): 13.5 mg/kg/day
NEL (mouse [6]; [31]): 6.5 mg/kg/day
NOAEL (mouse [6]; [31]): 6.5 mg/kg/day
LEL (rat [7]; [32]): 1.24 mg/kg/day
LOAEL (rat [7]; [32]): 1.24 mg/kg/day
NEL (rat [7]; [27]): 0.12 mg/kg/day
NOAEL (rat [7]; [27]): 0.12 mg/kg/day
LEL (rat [7]; [33]): 0.16 mg/kg/day
NEL (rat [7]; [33]): < 0.16 mg/kg/day
LOAEL (rat [7]; [34]): 1.24 mg/kg/day
NOAEL (rat [7]; [34]): 0.12 mg/kg/day
LEL (rat [8]; [35]): 2 mg/kg/day
LOAEL (rat [8]; [35]): 2 mg/kg/day
NEL (rat [8]; [35]): 0.38 mg/kg/day
NOAEL (rat [8]; [35]): 0.38 mg/kg/day
LOAEL (rat [8]; [36]): 2.3 mg/kg/day
NEL (rat [8]; [36]): 0.44 mg/kg/day
NOAEL (rat [8]; [36]): 0.44 mg/kg/day
LEL (rat [8]; group: parental, systemic / in life observation / body weight / body weight gain + systemic / in life observation / body weight / body weight): 2.3 mg/kg/day
LOAEL (rat [9]; [24]): > 2.21 mg/kg/day
NEL (rat [9]; [24]): 0.02 mg/kg/day
NOAEL (rat [9]; [24]): ≥ 2.21 mg/kg/day
LEL (rat [9]; [32]): 0.21 mg/kg/day
LEL (rat [9]; [37]): 0.21 mg/kg/day
LOAEL (rat [9]; [37]): 0.21 mg/kg/day
NEL (rat [9]; [37]): 0.02 mg/kg/day
NOAEL (rat [9]; [37]): 0.02 mg/kg/day
LEL (dog [10]; [27]): 0.03 mg/kg/day
LOAEL (dog [10]; [27]): 0.03 mg/kg/day
NEL (dog [10]; [27]): < 0.03 mg/kg/day
NOAEL (dog [10]; [27]): < 0.03 mg/kg/day
LEL (dog [10]; [38]): 0.3 mg/kg/day
LOAEL (dog [10]; [38]): > 0.3 mg/kg/day
NEL (dog [10]; [38]): 0.1 mg/kg/day
NOAEL (dog [10]; [38]): ≥ 0.3 mg/kg/day
LEL (rat [11]; [24]): 3 mg/kg/day
LOAEL (rat [11]; [24]): > 3 mg/kg/day
NOAEL (rat [11]; [24]): ≥ 3 mg/kg/day
LOAEL (rat [11]; group: developmental, systemic / in life observation / body weight / fetal weight): 3 mg/kg/day
LEL (rat [11]; [39]): 3 mg/kg/day
NEL (rat [11]; [39]): 1 mg/kg/day
NOAEL (rat [11]; [39]): 1 mg/kg/day
LEL (rat [11]; [40]): 3 mg/kg/day
LOAEL (rat [11]; [40]): 3 mg/kg/day
NEL (rat [11]; [40]): 1 mg/kg/day
NOAEL (rat [11]; [40]): 1 mg/kg/day

Nc1c(Cl)c(Cl)nc(C(=O)O)c1Cl [Picloram]
LEL (rat [12]; [41]): 150 mg/kg/day
LOAEL (rat [12]; [41]): 150 mg/kg/day
NEL (rat [12]; [42]): 50 mg/kg/day
NOAEL (rat [12]; [42]): 50 mg/kg/day
LEL (mouse [13]; systemic / organ weight / kidney / nos): 1000 mg/kg/day
LOAEL (mouse [13]; [43]): > 1000 mg/kg/day
NEL (mouse [13]; [43]): 500 mg/kg/day
NOAEL (mouse [13]; [43]): ≥ 1000 mg/kg/day
LEL (rat [14]): 250 mg/kg/day
LOAEL (rat [14]): 250 mg/kg/day
NEL (rat [14]): < 250 mg/kg/day
NOAEL (rat [14]): < 250 mg/kg/day
NEL (dog [15]; systemic / organ weight / liver / relative to body weight + systemic / in life observation / body weight / body weight gain): 35 mg/kg/day
LOAEL (dog [15]; [44]): > 175 mg/kg/day
NOAEL (dog [15]; [44]): ≥ 175 mg/kg/day
LEL (dog [15]; systemic / organ weight / liver / relative to body weight + systemic / organ weight / liver / absolute): 175 mg/kg/day
LEL (rat [16]; [45]): 20 mg/kg/day
NEL (rat [16]; [45]): < 20 mg/kg/day
NOAEL (rat [16]; systemic / in life observation / body weight / body weight + systemic / pathology microscopic / liver / hypertrophy + systemic / clinical …): 20 mg/kg/day
LOAEL (rat [16]; systemic / pathology microscopic / liver / hypertrophy): 60 mg/kg/day
LEL (rat [17]): 150 mg/kg/day
LOAEL (rat [17]): 150 mg/kg/day
NEL (rat [17]): 50 mg/kg/day
NOAEL (rat [17]): 50 mg/kg/day
LEL (dog [18]; [46]): 35 mg/kg/day
LOAEL (dog [18]; [46]): 35 mg/kg/day
NEL (dog [18]; [47]): 7 mg/kg/day
NOAEL (dog [18]; [47]): 7 mg/kg/day
LEL (mouse [19]): 1000 mg/kg/day
LOAEL (mouse [19]): 1000 mg/kg/day
NEL (mouse [19]): < 1000 mg/kg/day
NOAEL (mouse [19]): < 1000 mg/kg/day
